According to patent publication US20240262847A1, “COVALENT RAS INHIBITORS AND USES THEREOF” (Revolution Medicines, Inc., priority 2021, published 2024):

Target: T1, GDP-loaded K-Ras (1-169) G12D, C51S, C80L, C118S (Homo sapiens, UniProt P01116, C118S/C51S/C80L/G12D)
T1 construct: GDP-loaded K-Ras (1-169) G12D, C51S, C80L, C118S
Assay: K-Ras G12D(GDP) cross-linking assay (mass spectrometry, percent covalent modification)
Format: binding
Details: at 24 hours, room temperature
Method: Protocol: K-Ras G12D(GDP) Cross-Linking Assay
Note: While the Following Protocol Outlines the Procedure for K-Ras G12D(GDP), a Person of Skill in the Art May Substitute Other Ras Proteins, and May Also Substitute a Non-Hydrolyzable GTP Analog for GDP to Study GTP Bound Ras Protein.
GDP-loaded K-Ras (1-169) G12D, C51S, C80L, C118S and GDP-loaded K-Ras (1-169) C51S, C80L, C118S were adjusted to 50 μM in K-Ras assay buffer (12.5 mM HEPES, 75 mM NaCl and 1 mM MgCl2 at pH 7.4). A 5 μL aliquot of each protein solution was added to each well of a 96-well microplate containing 40 μL of assay buffer. Initial compound stocks were prepared in DMSO at 100 times their final assay concentration. Compounds were then diluted 10-fold into K-Ras assay buffer to 10 times their final concentration. A 5 μL aliquot of each diluted compound solution was added to each protein solution in the 96-well microplate to initiate the reaction, which then proceeded at room temperature. Typical final compound concentrations were 2, 10, and 25 μM. At each time point, the reactions were analyzed immediately or quenched with 5 μL of a 5% formic acid solution and kept at 4° C. until analysis. Typical assay endpoints were 1, 6 and 24 h.
Data collection took place on an Agilent 6230 TOF Mass Spectrometer. Complete reactions were injected onto a C4 reverse-phase column to separate protein from buffer components prior to entering the mass spectrometer. The proteins were eluted from the column by increasing acetonitrile fraction in the mobile phase and fed directly into the mass analyzer. Initial analysis of raw data took place on Agilent MassHunter BioConfirm software and consisted of deconvolution of multiple protein charge states with the maximum entropy algorithm, with a mass step of 1 Da. The heights of all deconvoluted protein masses were exported for further data analysis. The percent modification of each protein was then determined by calculating the peak height of the covalently modified K-Ras species as a percentage of the sum total of K-Ras protein peak height.

SMILES	cross-linking to K-Ras G12D
Oc1cc(-c2ncc3c(N4C[C@H]5CC[C@@H](C4)N5C[C@H]4CN4)nc(OC[C@@]45CCCN4C[C@H](F)C5)nc3c2F)c2c(F)cccc2c1 [Compound B3, 4-(4-((1R,5S)-8-(((R)-aziridin-2-yl)methyl)-3,8-diazabicyclo[3.2.1]octan-3-yl)-8-fluoro-2-(((2R,7aS)-2-fluorotetrahydro-1H-pyrrolizin-7a(5H)-yl)methoxy)pyrido[4,3-d]pyrimidin-7-yl)-5-fluoronaphthalen-2-ol]	greater than 0%

Same assay, conditions: at times up to 24 hours, room temperature

SMILES	cross-linking to K-Ras G12D
O=C([C@@H]1CN1)N1C=C(c2ncc3c(N4C[C@H]5CC[C@@H](C4)N5)nc(OC[C@@]45CCCN4C[C@H](F)C5)nc3c2F)c2c(F)cccc2C1 [Compound B24, (4-(4-((1R,5S)-3,8-diazabicyclo[3.2.1]octan-3-yl)-8-fluoro-2-(((2R,7aS)-2-fluorotetrahydro-1H-pyrrolizin-7a(5H)-yl)methoxy)pyrido[4,3-d]pyrimidin-7-yl)-5-fluoroisoquinolin-2(1H)-yl)((S)-aziridin-2-yl)methanone]	no cross-linking
O=C([C@@H]1CN1)N1[C@@H]2CC[C@H]1CN(c1nc(OC[C@@]34CCCN3C[C@H](F)C4)nc3c(F)c(-c4cc(O)cc5cccc(F)c45)ncc13)C2 [Compound B2, ((S)-aziridin-2-yl)((1R,5S)-3-(8-fluoro-7-(8-fluoro-3-hydroxynaphthalen-1-yl)-2-(((2R,7aS)-2-fluorotetrahydro-1H-pyrrolizin-7a(5H)-yl)methoxy)pyrido[4,3-d]pyrimidin-4-yl)-3,8-diazabicyclo[3.2.1]octan-8-yl)methanone]	no cross-linking
O=C([C@H]1CN1)N1[C@@H]2CC[C@H]1CN(c1nc(OC[C@@]34CCCN3C[C@H](F)C4)nc3c(F)c(-c4cc(O)cc5cccc(F)c45)ncc13)C2 [Compound B1, ((R)-aziridin-2-yl)((1R,5S)-3-(8-fluoro-7-(8-fluoro-3-hydroxynaphthalen-1-yl)-2-(((2R,7aS)-2-fluorotetrahydro-1H-pyrrolizin-7a(5H)-yl)methoxy)pyrido[4,3-d]pyrimidin-4-yl)-3,8-diazabicyclo[3.2.1]octan-8-yl)methanone]	no cross-linking
Oc1cc(-c2ncc3c(N4C[C@H]5CC[C@@H](C4)N5C[C@@H]4CN4)nc(OC[C@@]45CCCN4C[C@H](F)C5)nc3c2F)c2c(F)cccc2c1 [Compound B4, 4-(4-((1R,5S)-8-(((S)-aziridin-2-yl)methyl)-3,8-diazabicyclo[3.2.1]octan-3-yl)-8-fluoro-2-(((2R,7aS)-2-fluorotetrahydro-1H-pyrrolizin-7a(5H)-yl)methoxy)pyrido[4,3-d]pyrimidin-7-yl)-5-fluoronaphthalen-2-ol]	no cross-linking
O=C([C@H]1CN1)N1C=C(c2ncc3c(N4C[C@H]5CC[C@@H](C4)N5)nc(OC[C@@]45CCCN4C[C@H](F)C5)nc3c2F)c2c(F)cccc2C1 [Compound B23, (4-(4-((1R,5S)-3,8-diazabicyclo[3.2.1]octan-3-yl)-8-fluoro-2-(((2R,7aS)-2-fluorotetrahydro-1H-pyrrolizin-7a(5H)-yl)methoxy)pyrido[4,3-d]pyrimidin-7-yl)-5-fluoroisoquinolin-2(1H)-yl)((R)-aziridin-2-yl)methanone]	no cross-linking
